# In patent US5798372A, “Method for preventing onset of restenosis after angioplasty employing a retinoid” (Allergan, priority 1997, dated 1998):
# Key:
# [1] = tested on: smooth muscle cells (canine aorta); assay: Serum (1%)-induced smooth muscle cell proliferation, 3H-thymidine incorporation; type: cell-based; settings: for IC50: Canis lupus familiaris
# Method: (§1) The effect of 1% serum on DNA synthesis by endothelial or smooth muscle cells using ^3 H-thymidine incorporation was measured. For measuring the effectiveness of retinoids in inhibiting endothelial or smooth muscle cell proliferation induced by certain mitogens, i.e., serotonin or β-FGF the indicated concentrations were added to the media instead of 1% serum. Primary cells isolated from canine aorta were used for these studies. Unlike the typical cell lines (e.g. NIH 3T3 cells, etc.) 6-7 weeks are required to isolate and grow these primary cells in sufficient number to perform a single experiment. For the following studies, the primary cells (passages 2-4) were plated on 35×10 mm tissue culture dishes in 10% fetal bovine serum (FBS) and incubated. After 72 hours of growth the medias was replaced with 0.1% FBS for synchronization and incubated for additional 72 hours. Then 1% serum was added and incubated for 20 hours followed by the addition of 1μCi of ^3 H-thymidine. Four hours after the addition of 3H-thymidine the DNA was precipitated and the amount of ^3 H-thymidine incorporated was measured. This value is reported as the serum or serotonin or β-FGF stimulated value for cellular proliferation and is expressed as a percentage of baseline ^3 H-thymidine incorporation.
# (§2) To examine the antiproliferative effect of retinoids, they were dissolved in 100% ethanol and then added at the indicated final concentrations. The compounds were added at the time of adding 1% serum or serotonin or β-FGF to stimulate the cells. (The maximal final concentration of ethanol in culture media was 1% which is non-cytotoxic to endothelial or smooth muscle cells). After 20 hours of incubation with retinoids and 1% serum or serotonin or β-FGF, the ^3 H-thymidine incorporation was measured.
# (§3) In this experimental dosages ranging between 0.01 and 100 μM were evaluated for the effect of AGN 191183 on cell growth.
# (§4) The other retinoids, disclosed above, were also tested for their effect on smooth muscle and endothelial cell growth at the same dosages as for AGN 191183. Table 2 reports the ED50 for each of these retinoids.
# [2] = tested on: smooth muscle cells (canine aorta); assay: as above; type: cell-based; settings: Canis lupus familiaris, 1% serum, 100% = 2108 ± 165 cpm/10^6 cells, serum stimulated 725 ± 170, read-out: % SMOOTH MUSCLE (cell growth, % of baseline 3H-thymidine incorporation)
# [3] = tested on: endothelial cells (canine aorta); assay: Serum (1%)-induced endothelial cell proliferation, 3H-thymidine incorporation; type: cell-based; settings: for IC50: Canis lupus familiaris, Endothelial cell; for order of potency for endothelial cells: from Table 2
# Method: as §1, §2, §3, §4
# RAR and RXR receptor = assay: RAR vs RXR agonist activity (retinoid selectivity); type: biochemical; settings: Table 2; RAR selective agonist preferably has RAR vs RXR activity ratio of at least 5
# Text: (Of course, pan agonists show agonist activity at both the RAR and RXR receptor.)
# A pan agonist will have activity at both of the RAR and RXR receptor, e.g. similar potency at the RAR and RXR receptor.
# [4] = tested on: endothelial cells (canine aorta); assay: Serum (1%)-induced endothelial cell proliferation, 3H-thymidine incorporation; type: cell-based; settings: Canis lupus familiaris, 1% serum, 100% = 1739 ± 71 cpm/10^6 cells, serum stimulated 1246 ± 91, read-out: % ENDOTHELIAL (cell growth, % of baseline 3H-thymidine incorporation)
# [5] = tested on: smooth muscle cells (canine aorta); assay: β-FGF-induced smooth muscle cell proliferation, 3H-thymidine incorporation; type: cell-based; settings: Canis lupus familiaris, Table 3, read-out: ED50 FOR SMOOTH MUSCLE CELLS, β-FGF
# Method: as §1
# as §2, with “(The maximal final concentration of ethanol in culture media was 1% which is non-cytotoxic to endothelial or smooth muscle cells).” left out
# (§5) Certain of the retinoids were then tested for mitogen-induced cellular proliferation, utilizing serotonin (5HT) and β-FGF as such mitogens. In this testing, as reported in Table 3, below, the same dosages were evaluated for their effect on mitogen-induced cellular proliferation (The results are reported as ED50 and compared to the ED50 for serum-induced smooth muscle and endothelial cell growth).
# [6] = tested on: cellular proliferation at the site of vascular injury (balloon angioplasty); assay: Rabbit model of angioplasty-induced arterial injury, in vivo 3H-thymidine incorporation; parameters: species or system New Zealand white rabbits; settings: 10 mg/kg IP daily
# Text: There has been interest in attempting to reduce the incidence of restenosis by minimizing the trauma of angioplasty. […] However, a similar relationship between the degree of injury and restenosis has not been documented with conventional balloon angioplasty. In order to better characterize the time course and degree of cellular proliferation resulting from vascular injury, the effect of retinoids on the in vivo incorporation of 3H-thymidine in a rabbit model of arterial injury was studied. Varying degrees of injury were produced including both simple de-endothelialization of the intima as well as stretch injury of the vessel by conventional angioplasty.
# 3.0-3.5 kg male, New Zealand white rabbits underwent standardized femoral artery injury. Arterial access was obtained through the right carotid artery which was ligated after the procedure. Heparin (100 U/kg IV) was given once arterial access was obtained. Injury was accomplished by the following method:
# 1. […]
# Arterial specimens were then thawed and stripped of all adventitia. […] The samples were neutralized with 0.5N HCl and counted using multisol scintillation fluid.
# Using the above described model of angioplasty induced restenosis it was determined whether chronic treatment with all trans retinoic acid can attenuate the cellular proliferation of the site of vascular injury. […]
# [7] = tested on: smooth muscle cells (canine aorta); assay: Serotonin-induced smooth muscle cell proliferation, 3H-thymidine incorporation; type: cell-based; settings: Canis lupus familiaris, Table 3, read-out: ED50 FOR SMOOTH MUSCLE CELLS, Serotonin
# Method: as §1
# as §2, with “(The maximal final concentration of ethanol in culture media was 1% which is non-cytotoxic to endothelial or smooth muscle cells).” left out
# as §5
# [8] = tested on: endothelial cells (canine aorta); assay: β-FGF-induced endothelial cell proliferation, 3H-thymidine incorporation; type: cell-based; settings: Canis lupus familiaris, Table 3, read-out: ED50 FOR ENDOTHELIAL Cells, β-FGF
# Method: as §1
# as §2, with “(The maximal final concentration of ethanol in culture media was 1% which is non-cytotoxic to endothelial or smooth muscle cells).” left out
# as §5
# [9] = tested on: endothelial cells (canine aorta); assay: Serotonin-induced endothelial cell proliferation, 3H-thymidine incorporation; type: cell-based; settings: Canis lupus familiaris, Table 3, read-out: ED50 FOR ENDOTHELIAL Cells, Serotonin
# Method: as §1
# as §2, with “(The maximal final concentration of ethanol in culture media was 1% which is non-cytotoxic to endothelial or smooth muscle cells).” left out
# as §5
# [10] = serum induced, Table 3, read-out: ED50 FOR SMOOTH MUSCLE CELLS, Serum
# [11] = serum induced, Table 3, read-out: ED50 FOR ENDOTHELIAL Cells, Serum
structure (smiles),measurement,setting,value
"C/C(=C\c1ccc(C(=O)O)cc1)c1ccc2c(c1)C(C)(C)CCC2(C)C [AGN 191183, (E)-4-[2-(5,6,7,8-tetrahydro-5,5,8,8-tetramethyl-2-naphthalenyl)-1-propen-1-yl] benzoic acid]",IC50,[1]; read-out: ED50 FOR SMOOTH MUSCLE CELLS (concentration at which proliferation is inhibited by 50%),0.03 µM
same,rank order potency on smooth muscle cells,"[1]; serum induced, from Table 2",AGN 191659=191183>AGN 192327>AGN 191985>AGN 192326
same,effectiveness for inhibiting the growth of smooth muscle and endothelial cells,"[1]; smooth muscle and endothelial cells (also A2), serum induced",most effective retinoid for inhibiting the growth of both smooth muscle and endothelial cells
same,activity at 0.01 µM,[2]; 0.01 μM,376 ± 17%
same,activity at 0.05 µM,[2]; 0.05 μM,348 ± 95%
same,activity at 0.1 µM,[2]; 0.1 μM,219 ± 22%
same,activity at 0.5 µM,[2]; 0.5 μM,205 ± 17%
same,activity at 1 µM,[2]; 1 μM,185 ± 10%
same,activity at 5 µM,[2]; 5 μM,182 ± 3%
same,activity at 10 µM,[2]; 10 μM,126 ± 18%
same,activity at 50 µM,[2]; 50 μM,137 ± 25%
same,activity at 100 µM,[2]; 100 μM,77 ± 28%
same,IC50,[3]; read-out: ED50 FOR ENDOTHELIAL CELL (concentration at which proliferation is inhibited by 50%),6.15 µM
same,order of potency for endothelial cells,[3]; serum induced,AGN 192013>AGN 190205=AGN 191183
same,SELECTIVITY,RAR and RXR receptor,RAR
same,activity at 0.1 µM,[4]; 0.1 μM,959 ± 115%
same,activity at 0.5 µM,[4]; 0.5 μM,840 ± 108%
same,activity at 1 µM,[4]; 1 μM,815 ± 171%
same,activity at 5 µM,[4]; 5 μM,686 ± 40%
same,activity at 10 µM,[4]; 10 μM,406 ± 32%
same,activity at 50 µM,[4]; 50 μM,17 ± 2%
same,activity at 100 µM,[4]; 100 μM,9.3 ± 2.3%
"CC1=C(/C=C/C(C)=C/C=C/C(C)=C/C(=O)O)C(C)(C)CCC1 [AGN 100335, (E)-3,7-dimethyl-9-(2,6,6-trimethyl-1-cyclohexen-1-yl)-2,4,6,8-nonatetraenoic acid]",IC50,[5],> 100 µM
same,animals receiving retinoic acid that died before the study was completed,[6],2 out of 4
same,inhibition of cellular proliferation following angioplasty,"[6]; 6 days pretreatment and days 7-9, very small number of animals",appeared to inhibit the development of cellular proliferation following angioplasty
same,IC50,[1]; [10],35.8 µM
same,IC50,[7],0.047 µM
same,IC50,[8],0.009 µM
same,IC50,[3]; [11],28 µM
same,IC50,[9],0.025 µM
"CC1=C(/C=C/C(C)=C\C=C\C(C)=C\C(=O)O)C(C)(C)CCC1 [AGN 192013, (2E,4E,6Z,8E)-3,7-dimethyl-9-(2,6,6-trimethyl-1-cyclohexen-1-yl)-2,4,6,8-nonatetraenoic acid, reference compound]",IC50,[5],> 100 µM
same,IC50,"[1]; serum induced, Table 2, read-out: ED50 FOR SMOOTH MUSCLE CELLS (concentration at which proliferation is inhibited by 50%)",> 100 µM
same,IC50,[1]; [10],> 100 µM
same,IC50,[7],0.41 µM
same,IC50,[8],26.5 µM
same,IC50,"[3]; serum induced, Table 2, read-out: ED50 FOR ENDOTHELIAL CELL (concentration at which proliferation is inhibited by 50%)",2.25 µM
same,order of potency for endothelial cells,[3]; serum induced,AGN 192013>AGN 190205=AGN 191183
same,IC50,[9],0.16 µM
"CC1=C(/C=C/C(C)=C/C=C/C(C)=C\C(=O)O)C(C)(C)CCC1 [AGN 190013, (2Z,4E,6E,8E)-3,7-dimethyl-9-(2,6,6-trimethyl-1-cyclohexen-1-yl)-2,4,6,8-nonatetraenoic acid]",IC50,[5],> 100 µM
same,IC50,[1]; [10],7.4 µM
same,IC50,[7],5 µM
same,IC50,[8],0.009 µM
same,IC50,[3]; [11],31.5 µM
same,IC50,[9],0.0092 µM
